# Reference: ChEMBL document CHEMBL3991601, “The target landscape of clinical kinase drugs” (Science, 2017)
# Active and inactive are the calls of the source.
# Assays:
# [1] = molecular target: Serine/threonine-protein kinase N1 (Homo sapiens, UniProt Q16512)
# [2] = molecular target: T1, STE20-related kinase adapter protein alpha (Homo sapiens, UniProt Q7RTN6)
# T1 sequence (Q7RTN6 whole entry): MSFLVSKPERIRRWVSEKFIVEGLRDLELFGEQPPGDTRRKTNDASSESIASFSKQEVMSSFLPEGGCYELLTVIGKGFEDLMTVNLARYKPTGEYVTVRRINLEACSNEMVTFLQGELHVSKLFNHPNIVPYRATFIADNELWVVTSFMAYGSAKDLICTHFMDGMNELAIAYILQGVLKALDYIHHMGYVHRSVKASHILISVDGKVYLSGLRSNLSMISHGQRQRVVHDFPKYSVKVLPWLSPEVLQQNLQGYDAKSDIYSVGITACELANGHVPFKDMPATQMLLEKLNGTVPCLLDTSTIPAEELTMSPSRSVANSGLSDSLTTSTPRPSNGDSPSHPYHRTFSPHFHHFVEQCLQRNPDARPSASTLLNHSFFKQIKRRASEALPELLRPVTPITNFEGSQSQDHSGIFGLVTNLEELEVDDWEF
# Septin-9 = molecular target: T2, Septin-9 (Homo sapiens, UniProt Q9UHD8)
# T2 sequence (Q9UHD8 whole entry): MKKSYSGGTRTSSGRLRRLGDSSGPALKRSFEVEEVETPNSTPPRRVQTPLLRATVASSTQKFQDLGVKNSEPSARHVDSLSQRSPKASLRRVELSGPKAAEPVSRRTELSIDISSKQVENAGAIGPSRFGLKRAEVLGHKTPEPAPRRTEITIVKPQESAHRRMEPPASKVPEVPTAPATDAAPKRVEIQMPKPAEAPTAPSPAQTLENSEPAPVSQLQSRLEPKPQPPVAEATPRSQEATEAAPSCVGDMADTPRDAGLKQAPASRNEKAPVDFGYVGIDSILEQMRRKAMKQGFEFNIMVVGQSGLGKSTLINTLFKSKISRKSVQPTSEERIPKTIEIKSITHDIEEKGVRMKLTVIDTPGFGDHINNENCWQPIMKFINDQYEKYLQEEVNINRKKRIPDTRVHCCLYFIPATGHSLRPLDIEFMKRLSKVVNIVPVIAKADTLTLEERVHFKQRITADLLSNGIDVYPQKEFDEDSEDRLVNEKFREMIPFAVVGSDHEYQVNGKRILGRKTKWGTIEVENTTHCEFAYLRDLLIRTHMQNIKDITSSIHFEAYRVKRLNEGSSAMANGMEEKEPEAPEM
# [3] = molecular target: Receptor-interacting serine/threonine-protein kinase 3 (Homo sapiens, UniProt Q9Y572)
# Sequence of Receptor-interacting serine/threonine-protein kinase 3 (Q9Y572 whole entry): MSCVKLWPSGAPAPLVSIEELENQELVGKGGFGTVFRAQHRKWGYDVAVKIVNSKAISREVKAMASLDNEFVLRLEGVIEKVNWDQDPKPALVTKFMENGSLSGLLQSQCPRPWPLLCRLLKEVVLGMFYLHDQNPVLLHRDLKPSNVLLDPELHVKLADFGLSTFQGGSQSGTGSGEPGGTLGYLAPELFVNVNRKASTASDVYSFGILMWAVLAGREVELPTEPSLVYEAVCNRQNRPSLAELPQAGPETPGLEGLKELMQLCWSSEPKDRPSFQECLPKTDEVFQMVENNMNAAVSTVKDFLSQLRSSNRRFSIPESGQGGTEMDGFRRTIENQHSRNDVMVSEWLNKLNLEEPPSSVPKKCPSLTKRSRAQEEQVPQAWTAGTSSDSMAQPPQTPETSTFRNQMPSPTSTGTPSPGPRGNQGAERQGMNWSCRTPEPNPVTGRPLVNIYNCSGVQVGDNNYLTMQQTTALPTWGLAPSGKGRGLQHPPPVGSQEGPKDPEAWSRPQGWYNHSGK
# [4] = molecular target: T3, Adenine phosphoribosyltransferase (Homo sapiens, UniProt P07741)
# T3 sequence (P07741 whole entry): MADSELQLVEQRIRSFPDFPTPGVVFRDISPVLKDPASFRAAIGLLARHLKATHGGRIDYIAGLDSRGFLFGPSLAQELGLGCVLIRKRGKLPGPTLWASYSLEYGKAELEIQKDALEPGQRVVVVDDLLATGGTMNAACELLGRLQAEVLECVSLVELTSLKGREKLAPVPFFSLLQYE
# [5] = molecular target: Tyrosine-protein kinase ABL1 (Homo sapiens, UniProt P00519)
# Sequence of Tyrosine-protein kinase ABL1 (P00519 whole entry): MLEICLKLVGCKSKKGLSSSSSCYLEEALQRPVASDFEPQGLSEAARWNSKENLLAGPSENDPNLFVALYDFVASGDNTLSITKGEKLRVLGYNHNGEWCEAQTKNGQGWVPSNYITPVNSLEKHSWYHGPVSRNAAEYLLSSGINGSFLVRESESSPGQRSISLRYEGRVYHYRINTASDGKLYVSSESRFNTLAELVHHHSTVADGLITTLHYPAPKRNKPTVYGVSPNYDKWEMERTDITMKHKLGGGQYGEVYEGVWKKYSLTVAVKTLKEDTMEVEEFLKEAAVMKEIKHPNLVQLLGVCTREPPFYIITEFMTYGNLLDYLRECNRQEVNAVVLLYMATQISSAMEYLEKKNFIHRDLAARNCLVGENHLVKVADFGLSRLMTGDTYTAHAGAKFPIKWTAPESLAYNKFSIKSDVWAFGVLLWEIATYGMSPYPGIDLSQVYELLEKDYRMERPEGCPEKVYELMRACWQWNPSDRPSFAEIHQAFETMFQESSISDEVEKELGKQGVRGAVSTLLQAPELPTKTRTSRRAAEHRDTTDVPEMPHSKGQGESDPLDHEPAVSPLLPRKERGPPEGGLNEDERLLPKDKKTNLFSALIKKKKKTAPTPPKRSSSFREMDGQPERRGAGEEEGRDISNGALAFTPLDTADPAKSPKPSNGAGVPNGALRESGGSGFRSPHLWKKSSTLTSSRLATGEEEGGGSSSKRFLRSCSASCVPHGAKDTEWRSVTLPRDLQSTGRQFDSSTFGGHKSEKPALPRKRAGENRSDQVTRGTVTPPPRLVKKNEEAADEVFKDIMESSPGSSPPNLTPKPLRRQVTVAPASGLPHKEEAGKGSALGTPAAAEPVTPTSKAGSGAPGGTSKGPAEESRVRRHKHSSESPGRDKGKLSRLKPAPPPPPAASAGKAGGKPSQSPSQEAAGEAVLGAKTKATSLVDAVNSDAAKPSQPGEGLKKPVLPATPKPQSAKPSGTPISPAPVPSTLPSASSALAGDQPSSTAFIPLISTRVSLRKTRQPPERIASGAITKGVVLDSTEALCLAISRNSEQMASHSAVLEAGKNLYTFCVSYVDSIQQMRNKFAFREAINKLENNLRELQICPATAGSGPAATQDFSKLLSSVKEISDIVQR
# [6] = molecular target: T4, Phosphatidylinositol 5-phosphate 4-kinase type-2 alpha (Homo sapiens, UniProt P48426)
# T4 sequence (P48426 whole entry): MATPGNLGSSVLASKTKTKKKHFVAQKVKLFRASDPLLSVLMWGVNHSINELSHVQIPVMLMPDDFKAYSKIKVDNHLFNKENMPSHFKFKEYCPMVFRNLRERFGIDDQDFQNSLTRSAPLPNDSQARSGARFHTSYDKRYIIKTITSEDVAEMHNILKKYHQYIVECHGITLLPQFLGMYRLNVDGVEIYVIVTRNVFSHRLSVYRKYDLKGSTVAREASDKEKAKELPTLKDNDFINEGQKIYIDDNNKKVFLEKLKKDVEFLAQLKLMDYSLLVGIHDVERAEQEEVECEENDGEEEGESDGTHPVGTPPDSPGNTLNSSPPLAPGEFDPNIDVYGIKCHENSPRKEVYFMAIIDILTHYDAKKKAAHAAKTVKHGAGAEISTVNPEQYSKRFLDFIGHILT
# [7] = molecular target: T5, Interleukin-1 receptor-associated kinase 3 (Homo sapiens, UniProt Q9Y616)
# T5 sequence (Q9Y616 whole entry): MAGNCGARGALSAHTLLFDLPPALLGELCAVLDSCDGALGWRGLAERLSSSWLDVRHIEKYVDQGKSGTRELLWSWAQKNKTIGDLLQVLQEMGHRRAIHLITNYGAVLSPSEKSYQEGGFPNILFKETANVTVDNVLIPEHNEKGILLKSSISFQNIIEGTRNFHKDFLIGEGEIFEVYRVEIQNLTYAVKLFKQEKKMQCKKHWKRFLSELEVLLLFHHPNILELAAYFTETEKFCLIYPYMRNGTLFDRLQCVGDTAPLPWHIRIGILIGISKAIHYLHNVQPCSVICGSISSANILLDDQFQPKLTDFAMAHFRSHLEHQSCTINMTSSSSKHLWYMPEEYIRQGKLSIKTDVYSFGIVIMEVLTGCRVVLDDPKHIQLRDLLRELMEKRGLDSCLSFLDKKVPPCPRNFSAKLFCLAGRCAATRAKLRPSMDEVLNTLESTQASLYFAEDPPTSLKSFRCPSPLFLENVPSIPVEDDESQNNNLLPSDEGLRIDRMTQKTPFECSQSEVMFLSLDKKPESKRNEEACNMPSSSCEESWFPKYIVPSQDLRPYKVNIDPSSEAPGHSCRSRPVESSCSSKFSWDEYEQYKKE
# Further: in the data inactive means no Kd found up to 30 µM.
# Sequence of Serine/threonine-protein kinase N1 (Q16512 whole entry): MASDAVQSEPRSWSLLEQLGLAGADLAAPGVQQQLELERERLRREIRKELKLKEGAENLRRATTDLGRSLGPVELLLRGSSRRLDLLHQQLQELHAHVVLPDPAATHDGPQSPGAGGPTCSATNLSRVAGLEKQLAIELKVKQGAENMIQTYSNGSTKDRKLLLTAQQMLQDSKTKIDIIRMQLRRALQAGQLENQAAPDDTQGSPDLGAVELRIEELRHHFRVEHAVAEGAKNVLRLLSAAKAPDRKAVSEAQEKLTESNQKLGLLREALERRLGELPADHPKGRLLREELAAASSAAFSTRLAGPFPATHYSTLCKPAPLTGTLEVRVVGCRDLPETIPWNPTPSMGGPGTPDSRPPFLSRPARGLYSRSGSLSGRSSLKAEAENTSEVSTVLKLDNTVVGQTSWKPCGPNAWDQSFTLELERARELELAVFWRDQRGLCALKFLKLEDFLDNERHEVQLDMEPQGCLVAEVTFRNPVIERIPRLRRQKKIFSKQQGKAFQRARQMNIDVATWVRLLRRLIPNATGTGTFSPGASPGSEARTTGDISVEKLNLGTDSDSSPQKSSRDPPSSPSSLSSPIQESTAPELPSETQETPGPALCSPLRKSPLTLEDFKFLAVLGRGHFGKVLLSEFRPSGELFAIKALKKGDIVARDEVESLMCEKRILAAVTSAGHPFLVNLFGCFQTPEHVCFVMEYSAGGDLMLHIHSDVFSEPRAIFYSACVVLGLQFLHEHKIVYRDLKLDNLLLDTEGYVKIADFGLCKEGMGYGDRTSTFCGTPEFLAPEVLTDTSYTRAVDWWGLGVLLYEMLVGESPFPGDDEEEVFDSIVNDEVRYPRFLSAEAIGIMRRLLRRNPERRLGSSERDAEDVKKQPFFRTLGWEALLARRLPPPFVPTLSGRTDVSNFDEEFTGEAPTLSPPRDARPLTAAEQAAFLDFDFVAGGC
Kd [1],Kd [2],Kd (Septin-9),Kd [3],Kd [4],Kd [5],Kd [6],Kd [7],Compound
49.8 µM (active),> 30 µM (inactive),> 30 µM (inactive),> 30 µM (inactive),> 30 µM (inactive),0.842 µM,> 30 µM (inactive),> 30 µM (inactive),CC[C@@](C)(Nc1ccnc(-c2c[nH]c3ncccc23)n1)C(=O)NCC(F)(F)F [DECERNOTINIB]
> 30 µM (inactive),> 30 µM (inactive),> 30 µM (inactive),> 30 µM (inactive),> 30 µM (inactive),> 30 µM (inactive),> 30 µM (inactive),> 30 µM (inactive),CCc1cc2c(cc1N1CCC(N3CCOCC3)CC1)C(C)(C)c1[nH]c3cc(C#N)ccc3c1C2=O [ALECTINIB]
> 30 µM (inactive),> 30 µM (inactive),> 30 µM (inactive),> 30 µM (inactive),> 30 µM (inactive),> 30 µM (inactive),> 30 µM (inactive),> 30 µM (inactive),COc1ccc2c(OCc3nnc4ccc(-c5ccccc5)nn34)ccnc2c1 [AMG-208]
> 30 µM (inactive),> 30 µM (inactive),> 30 µM (inactive),> 30 µM (inactive),> 30 µM (inactive),> 30 µM (inactive),> 30 µM (inactive),> 30 µM (inactive),CNC(=O)c1cccc(-c2ccc3c(N4CCOC[C@@H]4C)nc(N4CCOC[C@@H]4C)nc3n2)c1 [VISTUSERTIB]
> 30 µM (inactive),> 30 µM (inactive),> 30 µM (inactive),2.46 µM (active),> 30 µM (inactive),1.1 µM (active),> 30 µM (inactive),> 30 µM (inactive),COc1cc2nccc(Oc3ccc(NC(=O)C4(C(=O)Nc5ccc(F)cc5)CC4)cc3)c2cc1OC [CABOZANTINIB]
> 30 µM (inactive),> 30 µM (inactive),> 30 µM (inactive),> 30 µM (inactive),> 30 µM (inactive),> 30 µM (inactive),> 30 µM (inactive),> 30 µM (inactive),Cn1c(=O)c(F)c(Nc2ccc(I)cc2F)c2c(=O)n(C[C@@H](O)CO)cnc21 [TAK-733]
1.34 µM (active),> 30 µM (inactive),> 30 µM (inactive),> 30 µM (inactive),> 30 µM (inactive),0.128 µM (active),> 30 µM (inactive),> 30 µM (inactive),COc1cccc(Nc2ncnn3ccc(CN4CC[C@@H](N)[C@H](O)C4)c23)c1 [BMS-690514]
> 30 µM (inactive),> 30 µM (inactive),> 30 µM (inactive),> 30 µM (inactive),> 30 µM (inactive),> 30 µM (inactive),> 30 µM (inactive),> 30 µM (inactive),COc1cc2ncnc(Nc3ccc(O)cc3)c2cc1OC [WHI-P131]

Compound,Kd [1],Kd [2],Kd (Septin-9),Kd [3],Kd [4],Kd [5],Kd [6],Kd [7]
COc1cc(F)c(F)c(Nc2ccc(I)cc2F)c1NS(=O)(=O)C1(C[C@H](O)CO)CC1 [REFAMETINIB],> 30 µM (inactive),> 30 µM (inactive),> 30 µM (inactive),> 30 µM (inactive),> 30 µM (inactive),> 30 µM (inactive),> 30 µM (inactive),> 30 µM (inactive)
CC1(COc2ccc3c(c2)ncn3-c2ccc3cccc(N4CCC(N)CC4)c3n2)COC1 [CRENOLANIB],0.165 µM (active),> 30 µM (inactive),> 30 µM (inactive),> 30 µM (inactive),0.029 µM,> 30 µM (inactive),> 30 µM (inactive),1.51 µM (active)
COCCN1CCN(Cc2ccc(-c3n[nH]c4c3C(=O)c3c(NC(=O)NN5CCOCC5)cccc3-4)cc2)CC1 [RGB-286638],> 30 µM (inactive),> 30 µM (inactive),> 30 µM (inactive),> 30 µM (inactive),> 30 µM (inactive),> 30 µM (inactive),> 30 µM (inactive),> 30 µM (inactive)
NC[C@@](O)(c1ccc(Cl)cc1)c1ccc(-c2cn[nH]c2)cc1 [AT-13148],0.025 µM (active),> 30 µM (inactive),> 30 µM (inactive),> 30 µM (inactive),> 30 µM (inactive),> 30 µM (inactive),> 30 µM (inactive),> 30 µM (inactive)
